Where a SMILES comes first, the peptide text is derived from it. The star is where a group is joined. Myristoyl = CCCCCCCCCCCCCC(=O)*
Tests used:
[1] = test system: CD44^hiCD24^lo CSCs in MDA-MB-231 cells; test: FACS analysis of CD44^hiCD24^lo cancer stem cells in MDA-MB-231 cells treated with P1 analogues; assay type: cell-based, human; conditions: 50 μM peptide, 48 hours; for CD44^hiCD24^lo CSCs (%) / COI, Live Single CD44^hiCD24^lo CSCs (Cell Count): n = 1; for Average Inhibition of CSCs (%) / CD44^hiCD24^lo CSCs (%) Repeat 1 / CD44^hiCD24^lo CSCs (%) Repeat 2 / CD44^hiCD24^lo CSCs (%) Repeat 3: n = 3
Protocol: Analogues of P1 (Table 6) were designed and synthesized in accordance with the procedure of Example 5. The ability of these analogues to inhibit cancer stem cells was determined using FACS analysis on MDA-MB-231 cells, which constitutively contain approximately 90% CD44^hiCD24^lo cancer stem cells, treated with the peptides.
(§1) Non-adherent cells were removed during the washing steps.

[2] = test system: MDA-MB-231 cells; assay type: cell-based, human; conditions: 50 μM peptide, 48 hours, n = 1;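 on COI, Live Single Cells (Cell Count): live means Hoechst-negative events among single cells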
From the text: as §1

| Structure (SMILES) | Inhibition of CSCs (%) Repeat 1 [1] [%] | Inhibition of CSCs (%) Repeat 2 [1] [%] | Inhibition of CSCs (%) Repeat 3 [1] [%] | CD44^hiCD24^lo CSCs (%) [1] [%] | COI, Live Single CD44^hiCD24^lo CSCs (Cell Count) [1] | Average Inhibition of CSCs (%) [1] [%] | CD44^hiCD24^lo CSCs (%) Repeat 1 [1] [%] | CD44^hiCD24^lo CSCs (%) Repeat 2 [1] [%] | CD44^hiCD24^lo CSCs (%) Repeat 3 [1] [%] | COI (Cell Count) [2] | COI, Live Single Cells (Cell Count) [2] | COI, Single (Cell Count) [2] | Total Cell Count [2] |
| --- | --- | --- | --- | --- | --- | --- | --- | --- | --- | --- | --- | --- | --- |
| CCCCCCCCCCCCCC(=O)N[C@@H](CC(C)C)C(=O)N[C@H](C(=O)N[C@@H](Cc1ccccc1)C(=O)N[C@H](C(=O)N[C@@H](Cc1ccccc1)C(=O)N[C@@H](CCCNC(=N)N)C(=O)N[C@@H](CC(C)C)C(=O)N[C@@H](CCCNC(=N)N)C(=O)N[C@@H](CCCCN)C(=O)N[C@@H](CCCCN)C(=O)N[C@@H](CCCNC(=N)N)C(=O)N[C@@H](CCSC)C(=O)N[C@@H](CCSC)C(=O)N[C@@H](CC(=O)O)C(=O)N[C@H](C(=O)N[C@@H](CCCCN)C(=O)N[C@@H](CCCCN)C(N)=O)C(C)C)[C@@H](C)CC)[C@@H](C)O [Peptide 2853828, Myristoyl-LTFIFRLRKKRMMDVKK-NH2] (Myristoyl-LTFIFRLRKKRMMDVKK-NH2) | 89.25 | 91.29 | 90.17 | 10.71 | 3 | 90.23 | 9.64 | 7.81 | 8.82 | 182 | 28 | 146 | 3309 |
| CCCCCCCCCCCCCC(=O)N[C@@H](CC(C)C)C(=O)N[C@H](C(=O)N[C@@H](Cc1ccccc1)C(=O)N[C@H](C(=O)N[C@@H](Cc1ccccc1)C(=O)N[C@@H](CCCNC(=N)N)C(=O)N[C@@H](CC(C)C)C(=O)N[C@@H](CCCNC(=N)N)C(=O)N[C@@H](CCCCN)C(=O)N[C@H](C(=O)N[C@@H](CCCNC(=N)N)C(=O)N[C@@H](CCSC)C(=O)N[C@@H](CCSC)C(=O)N[C@@H](CC(=O)O)C(=O)N[C@H](C(=O)N[C@@H](CCCCN)C(=O)N[C@@H](CCCCN)C(N)=O)C(C)C)C(C)C)[C@@H](C)CC)[C@@H](C)O [Peptide 2853829, Myristoyl-LTFIFRLRKVRMMDVKK-NH2] (Myristoyl-LTFIFRLRKVRMMDVKK-NH2) | 89.50 | 91.73 | 94.67 | 5.88 | 4 | 91.97 | 9.41 | 7.42 | 4.79 | 167 | 68 | 131 | 10000 |
| CCCCCCCCCCCCCC(=O)N[C@@H](CC(C)C)C(=O)N[C@H](C(=O)N[C@@H](Cc1ccccc1)C(=O)N[C@H](C(=O)N[C@@H](Cc1ccccc1)C(=O)N[C@@H](CCCNC(=N)N)C(=O)N[C@@H](CC(C)C)C(=O)N[C@@H](CCCNC(=N)N)C(=O)N[C@@H](CCCCN)C(=O)NCC(=O)N[C@@H](CCC(=O)O)C(=O)N[C@@H](CCSC)C(=O)N[C@@H](CCSC)C(=O)N[C@@H](CC(=O)O)C(=O)N[C@H](C(=O)N[C@@H](CCCCN)C(=O)N[C@@H](CCCCN)C(N)=O)C(C)C)[C@@H](C)CC)[C@@H](C)O [Peptide 2853830, Myristoyl-LTFIFRLRKGEMMDVKK-NH2] (Myristoyl-LTFIFRLRKGEMMDVKK-NH2) | 45.65 | 53.16 | 55.12 | 29.21 | 1312 | 51.31 | 48.71 | 42.02 | 40.27 | 5072 | 4491 | 4600 | 8489 |
| CCCCCCCCCCCCCC(=O)N[C@@H](CC(C)C)C(=O)N[C@H](C(=O)N[C@@H](Cc1ccccc1)C(=O)N[C@H](C(=O)N[C@@H](Cc1ccccc1)C(=O)N[C@@H](CCCNC(=N)N)C(=O)N[C@@H](CC(C)C)C(=O)N[C@@H](CCCNC(=N)N)C(=O)N[C@@H](CCCCN)C(=O)NCC(=O)N[C@H](C(=O)N[C@@H](CCSC)C(=O)N[C@@H](CCSC)C(=O)N[C@@H](CC(=O)O)C(=O)N[C@H](C(=O)N[C@@H](CCCCN)C(=O)N[C@@H](CCCCN)C(N)=O)C(C)C)C(C)C)[C@@H](C)CC)[C@@H](C)O [Peptide 2853831, Myristoyl-LTFIFRLRKGVMMDVKK-NH2] (Myristoyl-LTFIFRLRKGVMMDVKK-NH2) | 79.77 | 84.29 | 89.06 | 11.83 | 11 | 84.37 | 18.13 | 14.09 | 9.82 | 377 | 93 | 280 | 10000 |
| CCCCCCCCCCCCCC(=O)N[C@@H](CC(C)C)C(=O)N[C@H](C(=O)N[C@@H](Cc1ccccc1)C(=O)N[C@H](C(=O)N[C@@H](Cc1ccccc1)C(=O)N[C@@H](CCCNC(=N)N)C(=O)N[C@@H](CC(C)C)C(=O)N[C@@H](CCCNC(=N)N)C(=O)N[C@@H](CCCCN)C(=O)NCC(=O)N[C@@H](CCCNC(=N)N)C(=O)N[C@@H](CCC(=O)O)C(=O)N[C@@H](CCSC)C(=O)N[C@@H](CC(=O)O)C(=O)N[C@H](C(=O)N[C@@H](CCCCN)C(=O)N[C@@H](CCCCN)C(N)=O)C(C)C)[C@@H](C)CC)[C@@H](C)O [Peptide 2853832, Myristoyl-LTFIFRLRKGREMDVKK-NH2] (Myristoyl-LTFIFRLRKGREMDVKK-NH2) | 93.78 | 94.44 | 94.90 | 2.48 | 11 | 94.37 | 5.58 | 4.99 | 4.58 | 674 | 444 | 515 | 2068 |
| CCCCCCCCCCCCCC(=O)N[C@@H](CC(C)C)C(=O)N[C@H](C(=O)N[C@@H](Cc1ccccc1)C(=O)N[C@H](C(=O)N[C@@H](Cc1ccccc1)C(=O)N[C@@H](CCCNC(=N)N)C(=O)N[C@@H](CC(C)C)C(=O)N[C@@H](CCCNC(=N)N)C(=O)N[C@@H](CCCCN)C(=O)NCC(=O)N[C@@H](CCCNC(=N)N)C(=O)N[C@@H](CCCCN)C(=O)N[C@@H](CCSC)C(=O)N[C@@H](CC(=O)O)C(=O)N[C@H](C(=O)N[C@@H](CCCCN)C(=O)N[C@@H](CCCCN)C(N)=O)C(C)C)[C@@H](C)CC)[C@@H](C)O [Peptide 2853833, Myristoyl-LTFIFRLRKGRKMDVKK-NH2] (Myristoyl-LTFIFRLRKGRKMDVKK-NH2) | 70.25 | 75.23 | 85.46 | 12.50 | 9 | 76.98 | 26.67 | 22.22 | 13.04 | 495 | 72 | 363 | 4559 |
| CCCCCCCCCCCCCC(=O)N[C@@H](CC(C)C)C(=O)N[C@H](C(=O)N[C@@H](Cc1ccccc1)C(=O)N[C@H](C(=O)N[C@@H](Cc1ccccc1)C(=O)N[C@@H](CCCNC(=N)N)C(=O)N[C@@H](CC(C)C)C(=O)N[C@@H](CCCNC(=N)N)C(=O)N[C@@H](CCCCN)C(=O)NCC(=O)N[C@@H](CCCNC(=N)N)C(=O)N[C@@H](CCSC)C(=O)N[C@@H](CCC(=O)O)C(=O)N[C@@H](CC(=O)O)C(=O)N[C@H](C(=O)N[C@@H](CCCCN)C(=O)N[C@@H](CCCCN)C(N)=O)C(C)C)[C@@H](C)CC)[C@@H](C)O [Peptide 2853834, Myristoyl-LTFIFRLRKGRMEDVKK-NH2] (Myristoyl-LTFIFRLRKGRMEDVKK-NH2) | 91.98 | 92.08 | 92.04 | 5.76 | 22 | 92.03 | 7.18 | 7.11 | 7.14 | 890 | 382 | 660 | 4207 |

From US20200339691A1, “PROTEINACEOUS MOLECULES AND USES THEREFOR” (priority 2018, published 2020)
